Assay results: patent US20120164756A1, “ASPIRIN ASSAY” (RANDOX LABORATORIES LIMITED, priority 2009, published 2012)

Experiments:
[1] = system: antibodies raised from SUA-BTG; test: Biochip-based competitive immunoassay (salicyluric acid dose-response curve and cross-reactivity profile); assay type: binding, sheep; settings: Concentration 350 μg/ml
Description: In order to generate polyclonal antisera, the immunogen (prepared in Example 2) was mixed with primary complete Freund's Adjuvant (Sigma) and injected into a host sheep to provide target-specific polyclonal antisera. On a monthly basis the immunogen (with incomplete Freund's Adjuvant) was injected into the sheep. The host animal was bled to yield a suitable volume of specific antiserum. IgG was then extracted from the antisera via Caprylic acid/ammonium sulphate precipitation of immunoglobulin.
Nine calibrator solutions of salicyluric acid (0-5.00 μg/ml) were prepared in calibrator buffer for standard curves. Cross-reactants (aspirin, 4-aminosalcylic acid, benzoic acid, diflusinal, gentisic acid, gentisuric acid, ibuprofen, methyl salicylate, salicylic acid and salsalate) were diluted in calibrator buffer (0-350 μg/ml). Assay diluent (155 μl), sample/antigen (25 μl), and diluted conjugate (Hapten 1-HRP 120 μl) were added to biochips wells. Biochips were incubated for 30 min at 30° C. in a thermoshaker at 370 rpm, and then washed with TBST buffer (2 quick washes followed by 4 washes with 2 min intervals). Biochips were developed with 250 μl luminol plus: peroxide (1:1) for 2 min in the dark, and were then imaged on the Randox Investigator (2×60 sec images).

[2] = cited from earlier work
[3] = cited from earlier work; for share of excreted product: excretion after aspirin ingestion; for kinetics of formation: hepatic metabolism of salicylic acid
[4] = after ingestion of a therapeutic amount of aspirin

Compound	% Cross-reactivity [1]	share of excreted product [3]	kinetics of formation [3]	further results
COC(=O)c1ccccc1O [Methyl salicylate]	<<1.00%			
CC(=O)Oc1ccccc1C(=O)O [Aspirin, 2-acetoxybenzoic acid]	<<1.00%			moderately toxic concentration (MTC), aspirin equivalent ([2]; Chyka et al (2007)): 6.5 g; toxic concentration, aspirin ingestion ([2]; general literature): > 300 mg/kg; concentrations considered to be toxic ([2]; serum): exceeding 300 mg/l; therapeutic concentration range in serum ([2]; serum): 150 to 300 mg/L; time until only trace levels remain [3, 4]: ≤ 2 h
O=C(O)CNC(=O)c1ccccc1O [Salicyluric acid, salicyluric acid]		approximately 75%	Michaelis-Menten or zero-order kinetics	
O=C(O)c1cc(O)ccc1O [Gentisic acid]	<<1.00%	approximately 1%	first-order kinetics	
O=C(O)c1cc(-c2ccc(F)cc2F)ccc1O [Diflusinal]	<<1.00%			
O=C(O)CNC(=O)c1cc(O)ccc1O [Gentisuric acid]	<<1.00%			
O=C(O)CNC(=O)c1ccccc1 [Hippuric acid]	<<1.00%			
O=C(O[C@@H]1O[C@H](C(=O)O)[C@@H](O)[C@H](O)[C@H]1O)c1ccccc1O [salicylacyl glucuronide]		approximately 5%	first-order kinetics	
O=C(O)c1ccccc1O [Salicylic acid, salicylic acid]	<<1.00%	approximately 10%		therapeutic level in blood ([2]; blood of a healthy adult): 150 to 300 mg/L; time of peak levels [3, 4]: 1 to 2 h; half-life ([3]; in serum): approximately 6 hours
Nc1ccc(C(=O)O)c(O)c1 [4-aminosalicylic acid]	<<1.00%			
O=C(O)c1ccccc1O[C@@H]1O[C@H](C(=O)O)[C@@H](O)[C@H](O)[C@H]1O [salicylphenolic glucuronide]		approximately 8%	Michaelis-Menten or zero-order kinetics	
O=C(O)c1ccccc1 [Benzoic acid]	<<1.00%			
CC(C)Cc1ccc(C(C)C(=O)O)cc1 (stereo not drawn) [Ibuprofen]	<<1.00%			
